Data taken from ChEMBL document CHEMBL1201862, “PubChem BioAssay data set” (2004).
Active and inactive are the calls of the source.

What was measured:
[1] = Luminescence Cell-Based Dose Response HTS to Identify Activators of Luciferase Translation or Activity in H4 […] Cells. [Related pubchem assays: 1829 (Project Summary), 1814 (Primary HTS)]; type: functional
[2] = luciferase reporter signal suppression in cells – H4 neuroglioma cells, luminescence, dose response (AID 1990); type: functional, cell-based
[3] = alpha-synuclein stem-loop luciferase translation blockers – H4 neuroglioma cells, luminescence, confirmation (AID 1988); type: functional, cell-based
[4] = Luminescence Cell-Based Dose Response HTS to Identify Inhibitors of 5'UTR Stem-Loop Driven Prion Protein mRNA Translation in H4 Neuroglioblastoma Cells. [Related pubchem assays: 1827 (Project Summary), 1813 (Primary HTS)]; type: functional
[5] = viability of uninfected HEp-2 cells – cell-based, HTS, cytotoxicity control for RSV inhibitor project, dose response (AID 2410); type: functional; settings: human respiratory syncytial virus
[6] = target: T1, Polyadenylate-binding protein 1 (Homo sapiens, UniProt P11940); experiment: MLLE domain peptide-binding blockers, IC50 – biochemical, fluorescence polarization, FITC-PAM2 peptide, dose response (AID 602259); type: functional; settings: read-out: IC50_Mean
[7] = target: T1, Polyadenylate-binding protein 1; experiment: MLLE binding blockers, Cy5 peptide tracer – biochemical, fluorescence polarization, Cy5-PAM2 peptide, secondary, miRNA deadenylation inhibitor project, dose response (AID 602260); type: functional; settings: read-out: IC50_Mean
Streptokinase A = target: T2, Streptokinase A (Streptococcus pyogenes serotype M1, UniProt P10520); experiment: viability-normalized secreted streptokinase activity reduction – plasminogen activation absorbance, OD405, dose response (AID 1914); type: functional, Streptococcus pyogenes M1 GAS;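 further: secreted streptokinase activity via plasminogen activation per viability signal from cell pellet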
T2 sequence (P10520 whole entry): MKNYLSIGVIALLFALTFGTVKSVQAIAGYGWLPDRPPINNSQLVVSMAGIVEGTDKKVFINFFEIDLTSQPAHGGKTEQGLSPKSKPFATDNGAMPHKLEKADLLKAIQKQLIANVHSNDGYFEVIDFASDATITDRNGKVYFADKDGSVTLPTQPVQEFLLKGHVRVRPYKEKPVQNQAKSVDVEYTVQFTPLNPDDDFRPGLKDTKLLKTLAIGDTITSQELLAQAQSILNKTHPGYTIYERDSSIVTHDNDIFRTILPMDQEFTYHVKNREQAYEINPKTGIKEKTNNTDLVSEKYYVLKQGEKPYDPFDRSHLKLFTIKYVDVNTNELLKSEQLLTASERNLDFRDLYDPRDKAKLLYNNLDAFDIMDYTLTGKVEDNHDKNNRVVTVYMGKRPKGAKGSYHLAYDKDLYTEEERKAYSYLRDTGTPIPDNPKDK

[8] = tested on: Streptococcus sp. 'group A'; experiment: Streptococcus pyogenes SK(-)GAS viability under kanamycin – luminescence, BacTiterGlo, confirmation, counter-screen for streptokinase expression inhibitor project, dose response (AID 1900); type: functional, organism-based
Streptococcus = experiment: GAS UMAA2166 growth inhibition – luminescence, BacTiterGlo, counter-screen for streptokinase expression inhibitor project, dose response (AID 1915); type: functional, organism-based;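 further: potency for reduction of bacterial viability or growth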
[9] = target: FAD-linked sulfhydryl oxidase ALR (Homo sapiens, UniProt P55789); experiment: ALR-catalysed DTT oxidation blockers – biochemical, H2O2 detection, luminescence, cherry-pick, dose response (AID 493248)
[10] = Luminescence Cell-Based Dose Confirmation HTS to Identify Activators of 5'UTR Stem-Loop Driven Alpha-Synuclein mRNA Translation in H4 Neuroglioblastoma Cells. [Related pubchem assays: 1829 (Project Summary), 1814 (Primary HTS)]; type: functional
H4 = experiment: Luminescence Cell-Based Dose Response HTS to Identify Activators of 5'UTR Stem-Loop Driven Prion Protein mRNA Translation in H4 Neuroglioblastoma Cells. [Related pubchem assays: 1829 (Project Summary), 1814 (Primary HTS)]; type: functional; settings: Homo sapiens
Cytochrome P450 1A2 = target: T3, Cytochrome P450 1A2 (Homo sapiens, UniProt P05177);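 further: PubChem cytochrome P450 panel assay, CYP1A2 panel member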
T3 sequence (P05177 whole entry): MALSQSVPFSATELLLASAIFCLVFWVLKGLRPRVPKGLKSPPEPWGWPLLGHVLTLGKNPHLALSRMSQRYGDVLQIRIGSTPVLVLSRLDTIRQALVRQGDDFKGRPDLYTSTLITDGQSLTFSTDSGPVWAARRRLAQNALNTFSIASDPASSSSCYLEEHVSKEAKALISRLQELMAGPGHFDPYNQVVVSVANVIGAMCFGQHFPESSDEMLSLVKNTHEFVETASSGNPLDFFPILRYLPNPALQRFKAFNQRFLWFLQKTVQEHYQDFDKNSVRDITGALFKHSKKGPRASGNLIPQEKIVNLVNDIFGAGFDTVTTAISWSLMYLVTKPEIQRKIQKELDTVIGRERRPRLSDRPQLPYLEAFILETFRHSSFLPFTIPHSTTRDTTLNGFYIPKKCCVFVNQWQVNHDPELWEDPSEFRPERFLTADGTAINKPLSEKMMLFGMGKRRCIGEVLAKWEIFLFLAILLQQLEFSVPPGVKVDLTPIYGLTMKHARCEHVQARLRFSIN

Cytochrome P450 2C19 = Cytochrome P450 2C19 (Homo sapiens, UniProt P33261); experiment: Cytochrome panel assay with activity outcomes. Panel member name: p450-cyp2c19 Compounds with AC50 equal or less than 10 uM are considered active; type: functional; settings: read-out: AC50
Sequence of Cytochrome P450 2C19 (P33261 whole entry): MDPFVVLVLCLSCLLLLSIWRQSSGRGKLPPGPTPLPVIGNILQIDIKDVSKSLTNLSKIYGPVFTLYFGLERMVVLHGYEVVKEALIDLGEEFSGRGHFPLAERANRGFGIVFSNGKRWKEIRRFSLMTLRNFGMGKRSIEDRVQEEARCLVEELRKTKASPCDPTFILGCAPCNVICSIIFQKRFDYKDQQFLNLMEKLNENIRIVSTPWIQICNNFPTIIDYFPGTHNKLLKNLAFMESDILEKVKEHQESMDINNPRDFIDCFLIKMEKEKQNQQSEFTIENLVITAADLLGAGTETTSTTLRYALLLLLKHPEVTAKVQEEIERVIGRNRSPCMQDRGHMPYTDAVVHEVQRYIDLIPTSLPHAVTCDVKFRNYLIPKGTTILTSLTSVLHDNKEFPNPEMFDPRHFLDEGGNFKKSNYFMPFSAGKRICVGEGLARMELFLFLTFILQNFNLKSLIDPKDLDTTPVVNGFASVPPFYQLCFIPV

Sequence of FAD-linked sulfhydryl oxidase ALR (P55789 whole entry): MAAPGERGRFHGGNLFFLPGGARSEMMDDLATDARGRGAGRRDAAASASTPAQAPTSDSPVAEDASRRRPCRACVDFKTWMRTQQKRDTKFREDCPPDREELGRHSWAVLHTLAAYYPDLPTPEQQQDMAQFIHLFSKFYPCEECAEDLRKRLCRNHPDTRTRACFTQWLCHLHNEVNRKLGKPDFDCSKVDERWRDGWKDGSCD
T1 sequence (P11940 whole entry, the tested form may be a part): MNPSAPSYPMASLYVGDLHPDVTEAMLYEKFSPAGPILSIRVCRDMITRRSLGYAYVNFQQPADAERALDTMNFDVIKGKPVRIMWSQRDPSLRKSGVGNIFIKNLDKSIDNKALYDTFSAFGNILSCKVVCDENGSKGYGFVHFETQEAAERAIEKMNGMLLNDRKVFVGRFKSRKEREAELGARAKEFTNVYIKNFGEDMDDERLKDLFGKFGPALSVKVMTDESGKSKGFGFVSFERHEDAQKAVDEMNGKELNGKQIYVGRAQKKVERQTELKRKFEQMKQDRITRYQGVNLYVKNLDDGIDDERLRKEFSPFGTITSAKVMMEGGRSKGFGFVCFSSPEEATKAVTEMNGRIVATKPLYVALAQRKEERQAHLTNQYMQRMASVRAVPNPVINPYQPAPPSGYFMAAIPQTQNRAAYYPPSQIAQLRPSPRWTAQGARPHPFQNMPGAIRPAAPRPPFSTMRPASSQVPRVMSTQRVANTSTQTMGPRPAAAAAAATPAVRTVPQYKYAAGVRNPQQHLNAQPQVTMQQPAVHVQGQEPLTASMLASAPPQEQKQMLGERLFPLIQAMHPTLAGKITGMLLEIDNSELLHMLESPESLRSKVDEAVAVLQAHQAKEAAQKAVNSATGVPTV

## Cc1ccc(-n2nc3c(n2)/C(=N/O)CC/C3=N\O)cc1
[1]
  EC50: 1.05 µM (active)

## CNC(=O)c1cccn(Cc2cccc(C(F)(F)F)c2)c1=O
[2]
  EC50: > 120 µM (not active)
[3]
  EC50: 14.6 µM (active)
[4]
  EC50: 42.8 µM (active)

## Cc1cc(C(=O)CC#N)c(C)n1-c1c(C)n(C)n(-c2ccccc2)c1=O
[2]
  EC50: > 120 µM (not active)
[3]
  EC50: > 120 µM (not active)
[4]
  EC50: > 120 µM (not active)

## O=C(NN=C(S)Nc1ccc(Cl)c(Cl)c1)c1cccc([N+](=O)[O-])c1
[5]
  CC50: 7.46 µM (active)

## O=C(O)c1ccc(NC(=O)c2cn(-c3ccccc3)nc2-c2cccc(Cl)c2)cc1
[5]
  CC50: 33.6 µM (active)

## CC(C)(C)CC(C)(C)Nc1c(-c2ccc(O)cc2)nc2cnccn12
[2]
  EC50: 13.9 µM (active)
[3]
  EC50: 107 µM (active)
[4]
  EC50: 14.9 µM (active)

## O=C(Nc1ccc2nn(-c3ccc(F)cc3)nc2c1)c1cccnc1
[5]
  CC50: > 50 µM (active)

## CC(=O)Nc1ccc(NC(=S)NC(=O)c2ccc([N+](=O)[O-])cc2)cc1
[6]
  IC50: > 66 µM (inactive)
[7]
  IC50: > 66 µM (inactive)

## CC(C)n1cnc2c(NCc3ccccc3)nc(NCc3ccccc3)nc21
Streptokinase A
  EC50: > 150 µM (not active)
[8]
  EC50: 5.26 µM (active)
Streptococcus
  EC50: > 150 µM (not active)

## Nc1cccc(Nc2ccccc2)c1
[9]
  AC50: 2.5 µM (active)

## O=C(Cc1ccc(Cl)cc1)N1CCN(c2ccccc2)CC1
[9]
  AC50: 17.8 µM (active)

## CSc1ccc(CC(=O)N2CCC(n3nccc3NC(=O)C3CC3)CC2)cc1
[10]
  EC50: 15.2 µM (active)
H4
  EC50: > 120 µM (not active)
[1]
  EC50: 4.85 µM (active)

## Cc1ccc(Nc2nnc(SCC(=O)c3ccc(Br)s3)s2)c(C)c1
[5]
  CC50: 24.4 µM (active)

## O=C(O)CCn1cc(C=C2C(=O)NC(=O)NC2=O)c(-c2cc3ccccc3oc2=O)n1
[9]
  AC50: 0.109 µM (active)

## Fc1ccc(-c2ccnc3nc(-n4cccc4)nn23)cc1
[2]
  EC50: 39.7 µM (active)
[3]
  EC50: > 120 µM (not active)
[4]
  EC50: > 120 µM (not active)

## COc1cc(N2CCCC2)c(OC)cc1/C=C(/C#N)c1cccc(Br)c1
[5]
  CC50: > 50 µM (active)

## Cc1ccc(C2Cc3cc(O)c(O)cc3CN2)cc1 (stereo unspecified)
[9]
  AC50: 4.2 µM (active)

## FC(F)(F)c1cc(CCN2C(=S)NC[C@@H]2CC2CCCCC2)cc(C(F)(F)F)c1
Streptokinase A
  EC50: 7 µM (active)

## Cc1[nH]c2ccccc2c1CCNS(=O)(=O)c1ccc(S(N)(=O)=O)cc1
[9]
  AC50: 2.77 µM (active)

## COc1cccc(C(=O)Nc2ccc3[nH]c(O)nc3c2)c1OC
[2]
  EC50: < 0.1 µM (active)
[4]
  EC50: > 120 µM (not active)

## CC(=O)Nc1sc(NC(=O)c2ccc([N+](=O)[O-])cc2)nc1-c1cccs1
Streptokinase A
  EC50: > 150 µM (not active)
[8]
  EC50: > 150 µM (not active)
Streptococcus
  EC50: > 150 µM (not active)

## O=C(c1cnn2c(C(F)(F)F)cc(-c3ccc(F)cc3)nc12)N1CCc2ccccc2C1
Streptokinase A
  EC50: 37 µM (active)
[8]
  EC50: 14 µM (active)
Streptococcus
  EC50: > 150 µM (not active)

## COc1cccc(C2Nc3ccc4ccccc4c3C3=C2C(=O)CCC3)c1O (stereo unspecified)
[2]
  EC50: 10 µM (active)
[3]
  EC50: 11.7 µM (active)
[4]
  EC50: 32.1 µM (active)

## COc1cccc(-n2cnc3cccc(N)c32)c1
[9]
  AC50: 24.2 µM (active)

## COc1ccc(/C=N/Nc2nc(Nc3ccccc3)nc(N3CCCCC3)n2)cc1OC
[10]
  EC50: 9.49 µM (active)
Streptokinase A
  EC50: > 150 µM (not active)
H4
  EC50: 23.1 µM (active)
[1]
  EC50: 8.28 µM (active)
[8]
  EC50: 16.1 µM (active)
Streptococcus
  EC50: 46.3 µM (active)

## COc1ccc(CNc2ncc(-c3cccc([N+](=O)[O-])c3)n2C)c(OC)c1OC
[9]
  AC50: 0.035 µM (active)

## CC1CCCCN1S(=O)(=O)c1ccc(NC(=O)c2cccs2)cc1 (stereo unspecified)
[5]
  CC50: 25.1 µM (active)

## COc1cc(/C=C/c2ccc(O)cc2)cc(OC)c1 [PTEROSTILBENE]
[9]
  AC50: 0.778 µM (active)

## CCc1ccc(NC(=O)C2CCN(S(=O)(=O)c3ccc4c(c3)NC(=O)CO4)CC2)cc1
[2]
  EC50: > 120 µM (not active)
[3]
  EC50: > 120 µM (not active)
[4]
  EC50: > 120 µM (not active)

## Fc1ccc(-n2nnnc2S)cc1N1CCCC1
[9]
  AC50: 5.21 µM (active)

## CN(C(=O)CSc1nncc2ccccc12)C1CCCCC1
[10]
  EC50: 10.5 µM (active)
H4
  EC50: 13.1 µM (active)
[1]
  EC50: 14.1 µM (active)

## CC(C)S(=O)(=O)c1csc(NC(=O)Nc2cc(Cl)ccc2Cl)c1Cl
Streptokinase A
  EC50: 7.69 µM (active)
[8]
  EC50: 1.3 µM (active)
Streptococcus
  EC50: 8.4 µM (active)

## Sc1nnc2n1CCCN2
[9]
  AC50: 11.1 µM (active)

## COc1cccc(C2C(C#N)=C(N)OC(C(C)(C)C)=C2C#N)c1 (stereo unspecified)
[10]
  EC50: > 120 µM (not active)
H4
  EC50: > 120 µM (not active)
[1]
  EC50: > 120 µM (not active)

## COc1cc(C(=O)NNC(=S)NC(=O)c2ccccc2C)cc(OC)c1OC
Streptokinase A
  EC50: > 150 µM (not active)
[8]
  EC50: 2.06 µM (active)
Streptococcus
  EC50: 49.5 µM (active)

## CCOc1ccc(N/C(S)=N/CCCn2ccnc2)cc1
[10]
  EC50: > 120 µM (not active)
H4
  EC50: > 120 µM (not active)
[1]
  EC50: > 120 µM (not active)

## CC(C)C(=O)Nc1ccc(C(=O)NNC(=S)NC(=O)c2cccs2)cc1
Streptokinase A
  EC50: > 150 µM (not active)
[8]
  EC50: 6.98 µM (active)
Streptococcus
  EC50: 34.8 µM (active)

## O=C1c2ccccc2NC(c2ccccc2O)N1NS(=O)(=O)c1ccccc1 (stereo unspecified)
[10]
  EC50: > 120 µM (not active)
H4
  EC50: > 120 µM (not active)
[1]
  EC50: > 60 µM (not active)

## C(/C=C/c1ccco1)=N/N1CCN(c2ccccc2)CC1
[10]
  EC50: 2.21 µM (active)
Cytochrome P450 1A2
  AC50: 8.91 µM (inconclusive)
[1]
  EC50: 17.5 µM (active)
Cytochrome P450 2C19
  AC50: 2 µM (inconclusive)

## Cc1nc2c(cc(Oc3ccc(S(=O)(=O)N4CCOCC4)cn3)c3ccsc32)s1
[10]
  EC50: 10.2 µM (active)
H4
  EC50: > 120 µM (not active)
[1]
  EC50: 15.5 µM (active)

## CN1CCN(C(=S)c2ccc(-c3cccc(Cl)c3Cl)o2)CC1
[5]
  CC50: 20.7 µM (active)

## COc1ccc(C(=O)n2c(N)nc3ccccc32)cc1OC
[1]
  EC50: 0.429 µM (active)

## Oc1ccc(/C=N/Nc2cccc3cccnc23)c(O)c1
H4
  EC50: 18.7 µM (active)

## Cc1ccc(-c2csc(NCCc3nc4cc(Cl)c(Cl)cc4n3CCOCCO)n2)cc1
[5]
  CC50: 9.53 µM (active)

## O=C(O)CSc1nnc(NC(=O)c2ccc3c(c2)OCO3)s1
[2]
  EC50: 13 µM (active)
[3]
  EC50: 62.2 µM (active)
[4]
  EC50: 16.2 µM (active)

## CCOC(=O)C1=C(CSc2nc(-c3ccccc3)ccc2C#N)OC(N)=C(C#N)C1c1ccc(OC)cc1 (stereo unspecified)
[10]
  EC50: 12.3 µM (active)
H4
  EC50: 13.3 µM (active)
[1]
  EC50: 16.8 µM (active)

## CN(C)/C=N/c1ncnc2c1cnn2-c1ccc(C(F)(F)F)cn1
H4
  EC50: > 120 µM (not active)
[1]
  EC50: > 120 µM (not active)

## COc1ccc(CCN2CC3=C(C2=O)C(c2ccccc2)NC(=O)N3C)cc1OC (stereo unspecified)
[2]
  EC50: 24.4 µM (active)
[3]
  EC50: > 120 µM (not active)
[4]
  EC50: > 120 µM (not active)
